One series has as its system Kasumi-1. Kind of series: modified MTT assay (Cell Counting Kit-8), cell proliferation. Type of series: cell-based, human. The conditions noted are these: Homo sapiens; Kasumi-1, 72 h. How it is done: The trypan blue dye exclusion method was used to evaluate cell viability. Cells (HL-60, THP1, SKM1 and Kasumi1 cells) were seeded in flat-bottomed 96-well plates at a density of 1 × 10^4 cells in 100 µL medium per well and incubated with FA-HP-β-CyD (0, 0,1, 0.25, 0.5, 0.75, 1 mM) or HP-β-CyD (0, 1, 2.5, 5, 10 mM) for 72 h. Then, viable cells were counted. Cell proliferation was evaluated by a modified MTT assay using Cell Counting Kit-8 (Dojindo Molecular Technologies, Kumamoto, Japan), as previously described. AML cells were cultured in 96-well plates at a density of 1 × 10^4 cells in 100 µL medium per well and incubated with FA-HP-β-CyD or HP-β-CyD for 72 h. […] This method is capable of quantifying synergistic (CI < 1) and antagonistic (CI > 1) effects at different dose and effect levels.
(In general: Tetrazolium assays rely on reduction of a dye to a coloured formazan, in cell work by metabolically active cells.)

The subject of the next series is AML cell lines. Kind of series: Annexin V and PI staining, statements over all AML cell lines. The series is classed as cell-based, human.
For a further series, the system named is HL-60. Nature of the series: cell viability with autophagy inhibitors (Cell Counting Kit-8). Type of series: cell-based, human. To be noted: 1 mM FA-HP-β-CyD or 10 mM HP-β-CyD, chloroquine 20 μM, LY294002 50 μM, bafilomycin A1 1 nM. How it is done:
(§1) HL-60 and THP1 cells (2 × 10^5 cells in 100 µL of RPMI-1640 medium per well) were seeded in flat-bottomed 96-well plates (Greiner Labortechnik, Hamburg, Germany) and treated with both 1 mM of FA-HP-β-CyD and 10 mM of HP-β-CyD at 37 °C for 2 h. The cells were then pretreated for 24 h with the autophagy inhibitors chloroquine (20 µM), LY294002 (50 μM; Fujifilm Wako Pure Chemicals Co., Ltd., Osaka, Japan), or bafilomycin A1 (1 nM; Funakoshi, Tokyo, Japan). Cell proliferation was assessed using Cell Counting Kit-8.

Another series concerns THP1. The series is described as above. To be noted: 1 mM FA-HP-β-CyD or 10 mM HP-β-CyD, chloroquine 20 μM, LY294002 50 μM, bafilomycin A1 1 nM. The series is classed as cell-based, human. How it is done: as §1
The test system of series [1] is normal human bone marrow CD34-positive progenitor cells. Kind of series: methylcellulose colony formation assay. The conditions noted are these: 10 mM HP-β-CyD, 1 mM FA-HP-β-CyD, 1 week of culture.
Text: Human bone marrow CD34 positive cells were purchased from LONZA (Bazel, Switzerland). […] After 1 week of culture, the number of colonies was counted using an inverted microscope. Data represent the mean number of colonies ± SEM (n = 3).

Molecules are shown by their SMILES.

One may read the IC50 as the concentration that gives 50% inhibition.

Experimental for AML cell lines: PI and Annexin V (BD Biosciences, San Jose, CA, USA) staining was performed to assess apoptosis, as previously described [53]. Cells were filtered through nylon mesh and assessed using a FACSVerse flow cytometer (BD Biosciences). Data were analyzed using FlowJo software 10.8.2 (Tree Star, Inc., Ashland, OR, USA).

With `CC(O)COC[C@H]1O[C@@H]2O[C@H]3[C@H](O)[C@@H](O)[C@@H](O[C@H]4[C@H](O)[C@@H](O)[C@@H](O[C@H]5[C@H](O)[C@@H](O)[C@@H](O[C@H]6[C@H](O)[C@@H](O)[C@@H](O[C@H]7[C@H](O)[C@@H](O)[C@@H](O[C@H]8[C@H](O)[C@@H](O)[C@@H](O[C@H]1[C@H](O)[C@H]2O)O[C@@H]8COCC(C)O)O[C@@H]7COCC(C)O)O[C@@H]6COCC(C)O)O[C@@H]5COCC(C)O)O[C@@H]4COCC(C)O)O[C@@H]3COCC(C)O` (stereo partly drawn) [HP-β-CyD, 2-Hydroxypropyl-β-cyclodextrin], the concentration for half-maximal inhibition (IC50) in the series on Kasumi-1 was found to be 3.14 mM. Further, the “mode of cell death at high concentration” value with AML cell lines (15 mM HP-β-CyD) is “appeared to undergo necrosis”. Further, the apoptosis induction entry in the series on AML cell lines (four AML cell lines, 72 h) is “underwent apoptosis”. In addition, the “viability in the presence of autophagy inhibitors vs CyD alone” value in the series with HL-60 and with THP1 was “not affected by the presence or absence of autophagy inhibitors” in each case. For the same molecule, in series [1], the colony formation result is “reduced colony numbers”.
